The source made the active and inactive calls. No rule for the calls is given here.

The assay deals with Serine/threonine-protein kinase mTOR (Homo sapiens) (UniProt P42345). Put plainly: binders of mTOR FRB domain, biophysical, NMR (AID 1648). To be noted: NMR binding to FRB domain, chemical shift.
Serine/threonine-protein kinase mTOR (Homo sapiens), sequence (P42345 2015-2114): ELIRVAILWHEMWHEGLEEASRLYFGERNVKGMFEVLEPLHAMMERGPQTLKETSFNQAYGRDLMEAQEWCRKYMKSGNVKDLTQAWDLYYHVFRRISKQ
As a reminder, the Kd is the free concentration of one partner at which half of the binding sites on the other are occupied at equilibrium, for simple one-to-one binding. Consider `C[C@@H]1CC[C@@]2(NC1)O[C@H]1C[C@H]3C4CC=C5C[C@@H](O)CC[C@]5(C)C4CC[C@]3(C)C1[C@@H]2C` (stereo not given in full), for which the Kd was > 4 mM (inactive).
The figure for `N[C@@H](CCC(=O)N[C@@H](CS)C(=O)NCC(=O)O)C(=O)O` is > 4 mM (inactive); for `CN1CCC2(CC1)CC1CC3C=CC1(CN2)O3` (stereo not given) it is > 4 mM (inactive); for `CNC(C)[C@H](O)c1ccccc1` (stereo not given in full) it is > 4 mM (inactive).
As to `NCc1ccc2c(c1)OCO2`, the Kd is > 4 mM (inactive).
As for `CCOC(=O)CNC(=O)CSc1nnc(C)c(=O)[nH]1`, the figure is > 4 mM (inactive); as for `Cc1nnc(SCC(=O)N2CCCCC2)s1`, > 4 mM (inactive); as for `Nc1nc(-c2nc3ccccc3[nH]2)cs1`, > 4 mM (inactive).
For the compound `Cc1ccc2c(c1)CCCN2C(=O)c1ccncc1`, the Kd was > 4 mM (inactive).
As for `O=C1c2cccnc2C(=O)N1Cc1ccco1`, the figure is > 4 mM (inactive); as for `Oc1ccccc1-c1nnco1`, > 4 mM (inactive); as for `Cc1ccccc1CSc1nncn1N`, > 4 mM (inactive).
On to `Oc1ccc2c(c1)OCO2`, for which the Kd was > 4 mM (inactive).
The figure for `O=C(NC(=S)NC1CCS(=O)(=O)C1)c1ccccc1` (stereo not given) is > 4 mM (inactive); for `CC(C)(C)C(=O)Nc1nnc(SCC(N)=O)s1` it is > 4 mM (inactive).
`Cc1cc(C)n(-c2nc(C)nc(N)n2)n1`: the Kd was > 4 mM (inactive).
Take `CC(C)C(C)/C=C/C(C)C1CCC2C3=CC=C4CC(O)CCC4(C)C3CCC21C` (stereo not given): the Kd was > 4 mM (inactive).
As for `O=C(c1ccco1)N1CCN(Cc2cccc(F)c2)CC1`, the figure is > 4 mM (inactive).
The figure for `Cc1occc1C(=O)NCc1ccccc1F` is > 4 mM (inactive).
Consider `Oc1ccc(-n2ccnc2)cc1`, for which the Kd was > 4 mM (inactive).
With `NC(=O)NC1NC(=O)NC1=O` (stereo not given), the Kd was > 4 mM (inactive).
As for `CC1CCCN(C/C(O)=C(\C#N)c2nc3ccccc3[nH]2)C1` (stereo not given), the Kd is > 4 mM (inactive).
The figure for `CN1CCN(c2ncnc3nc[nH]c23)CC1` is > 4 mM (inactive); for `Clc1ncc2[nH]cnc2n1` it is > 4 mM (inactive); for `COC(=O)c1c(C)c2c(c(C)c1O)OC(=O)c1c(C)c(Cl)c(O)c(Cl)c1O2` it is > 4 mM (inactive).
Consider `CC(=O)Nc1cnn(-c2ccccc2)c(=O)c1Cl`, for which the Kd was > 4 mM (inactive).
As for `O=c1c2ccccc2nc2n1CCS2`, the figure is > 4 mM (inactive); as for `S=c1nc[nH]c2c1cnn2-c1ccccc1`, > 4 mM (inactive).
As for `O=C1CCC(=O)N1CNc1ccccc1`, the figure is > 4 mM (inactive); as for `NC(=O)C1CCN(CC2CC=CCC2)CC1` (stereo not given), > 4 mM (inactive); as for `CSc1ccc(C2NC(=O)CCC2[N+](=O)[O-])cc1` (stereo not given), > 4 mM (inactive).
As for `O=C(Nc1cccnc1)c1c(F)c(F)c(F)c(F)c1F`, the figure is > 4 mM (inactive); as for `CC(=O)CNc1cc(CNC(C)=O)c(C)cc1C`, > 4 mM (inactive).
Turning to `CCOc1ccc(-c2n[nH]c(=S)n2C)cc1`, the Kd is > 4 mM (inactive).
As for `Cc1ccc(SCc2cc(=O)n3[nH]cnc3n2)cc1`, the Kd was > 4 mM (inactive).
For `CC(=O)c1ccc2c(c1)OCCO2`, the Kd was > 4 mM (inactive).
As for `OCc1cc2ccccc2o1`, the figure is > 4 mM (inactive).
As for `N#Cc1cc2c(nc1SCc1ccncc1)CCC2`, the figure is > 4 mM (inactive).
Consider `NC(=O)c1ccsc1NC(=O)c1cccnc1`, for which the Kd is > 4 mM (inactive).
Consider `Cc1nn(-c2ccccc2)nc1C(=O)O`, for which the Kd is > 4 mM (inactive).
Regarding `Cc1nnc(SCC(=O)NC2CCCC2)[nH]c1=O`, the Kd is > 4 mM (inactive).
Turning to `COc1cc2c(cc1OC)[C@@H]1C(=O)c3ccc4c(c3O[C@@H]1CO2)CC(C(C)C)O4` (stereo not given in full), the Kd is > 4 mM (inactive).
The figure for `NC(=O)C1CCN(C(=S)Nc2ccccc2)CC1` is > 4 mM (inactive); for `COc1cc(/C=C2/NC(=S)NC2=O)cc(Cl)c1O` it is > 4 mM (inactive); for `CC(=O)Nc1sc(C)c(C)c1C(N)=O` it is > 4 mM (inactive).
Regarding `O=C(O)CC1Sc2ccccc2NC1=O` (stereo not given), the Kd was > 4 mM (inactive).
With `CN1CN/C(=N\[N+](=O)[O-])N(c2ccccc2)C1`, the Kd was > 4 mM (inactive).
The figure for `Cc1c(C(=O)Nc2ccccn2)oc2ccccc12` is > 4 mM (inactive); for `O=C(O)CSCc1c(F)cccc1Cl` it is > 4 mM (inactive).
The figure for `COc1ccc2nc(N)sc2n1` is > 4 mM (inactive); for `Clc1ccc(-c2nnc3ccccn23)cc1` it is > 4 mM (inactive); for `Cc1ccc(-c2nc(-c3cccnc3)no2)cc1` it is > 4 mM (inactive).
As for `NC(=O)CSc1ccc2nnc(-c3ccccc3)n2n1`, the figure is > 4 mM (inactive).
Consider `CN1CCc2c(sc(N)c2C#N)C1`, for which the Kd was > 4 mM (inactive).
The figure for `CC(C)(C)CC(=O)N1CCC(C(N)=O)CC1` is > 4 mM (inactive); for `NC(=O)c1sc2ccccc2c1Cl` it is > 4 mM (inactive).
As for `CC1NC(C(=O)O)Cc2c1[nH]c1ccccc21` (stereo not given), the figure is > 4 mM (inactive).
As to `O=C(O)CN1CCN(C2CCCC2)CC1`, the Kd was > 4 mM (inactive).
As for `Cc1nc(-c2cccc(-c3noc(C)n3)c2)no1`, the Kd was > 4 mM (inactive).
The figure for `Cc1occc1C(=O)Nc1ccc2c(c1)CCC2` is > 4 mM (inactive); for `Nc1nc(-c2ccc(F)c(F)c2)cs1` it is > 4 mM (inactive); for `Cc1cc(C)nc(N(C#N)Cc2ccccc2)n1` it is > 4 mM (inactive).
Take `CCc1nnc(NC(C)=O)s1`: the Kd was > 4 mM (inactive).
On to `COc1ccc2c(=O)c(OC)c(-c3ccccc3)oc2c1`, for which the Kd was > 4 mM (inactive).
The figure for `Nc1nc2ncc(CNc3ccc(C(=O)N[C@@H](CCC(=O)O)C(=O)O)cc3)nc2c(=O)[nH]1` is > 4 mM (inactive); for `O=C(O)c1cccc(-n2cccc2)c1` it is > 4 mM (inactive); for `COc1cccc(-c2nn(-c3ccccc3)cc2CO)c1` it is > 4 mM (inactive).
Regarding `CC(C)=NNC(=O)C(=O)NC(C)(C)C`, the Kd was > 4 mM (inactive).
On to `COC(=O)C1CCc2ccccc2N1` (stereo not given), for which the Kd is > 4 mM (inactive).
The figure for `O=C(Nn1cnnc1)c1cc2c(s1)CCCCC2` is > 4 mM (inactive); for `Cc1ccc(C(=O)N2CCC(C(=O)O)CC2)cc1` it is > 4 mM (inactive); for `Oc1ccc([C@H]2Oc3cc(O)cc(O)c3C[C@H]2O)cc1` it is > 4 mM (inactive).
As for `O=C(O)c1coc2c1C(=O)CCC2`, the Kd was > 4 mM (inactive).
Consider `COC(=O)C[C@H]1C(C)(C)C(=O)[C@@H]2CC3=C4CC(=O)O[C@@H](c5ccoc5)[C@]4(C)CCC3C1(C)C2=O` (stereo not given in full), for which the Kd is > 4 mM (inactive).
Consider `O=C1CSC(=NC(=O)c2ccccc2)N1`, for which the Kd is > 4 mM (inactive).
The figure for `CCOC(=O)c1ccc2c(c1)nnn2C` is > 4 mM (inactive).
`COC(=O)[C@@H]1OC(=O)[C@H]2O[C@@]23[C@@]1(C)CCC1[C@@]2(C)CCC(=O)C(C)(C)C2C[C@@H](OC(C)=O)[C@]13C` (stereo not given in full): the Kd was > 4 mM (inactive).
Consider `CC(C)NC(=O)c1nc2ccccc2s1`, for which the Kd was > 4 mM (inactive).
Regarding `Cc1nc2ccc(NC(=O)N3CCOCC3)cc2s1`, the Kd was > 4 mM (inactive).
As for `CN1CCC[C@H]1c1cccnc1`, the figure is > 4 mM (inactive).
As for `NC(=O)CSc1nc2ccccc2o1`, the figure is > 4 mM (inactive).
The figure for `O=C1c2ccccc2C(=O)c2c1ccc(O)c2O` is > 4 mM (inactive); for `Cc1cc(C(=O)c2c(C)nn(C)c2Cl)n(C)n1` it is > 4 mM (inactive); for `Cc1ccccc1NC(=O)c1ocnc1C` it is > 4 mM (inactive).
As for `O=c1[nH]c(NCCO)nnc1Cc1ccccc1`, the Kd is > 4 mM (inactive).
As for `Cn1cnc2ccc([N+](=O)[O-])cc2c1=O`, the figure is > 4 mM (inactive).
As for `CCc1ccccc1OCc1nnc(N)s1`, the figure is > 4 mM (inactive); as for `COC(=O)N(c1ccccc1)P1(=S)OCCO1`, > 4 mM (inactive); as for `CCCCn1c(S(=O)(=O)O)nc2ccccc21`, > 4 mM (inactive).
For the compound `Cn1cnnc1SCC(=O)Nc1nccs1`, the Kd is > 4 mM (inactive).
As for `CC(=O)Nc1ccc2c(c1)C(=O)N(C1CCCCC1)C2=O`, the figure is > 4 mM (inactive); as for `NC(=O)COc1cccc2cccnc12`, > 4 mM (inactive).
On to `CC(=O)Nc1ccc(C(=O)n2nc(C)cc2C)cc1`, for which the Kd was > 4 mM (inactive).
The figure for `Cc1ccc(/C=C/C(=O)O)cc1S(=O)(=O)NCCO` is > 4 mM (inactive); for `CCCN1CCC(N2CCC(O)CC2)CC1` it is > 4 mM (inactive).
The figure for `CCCCCCCCCCCCCc1ccco1` is > 4 mM (inactive).
The figure for `CCn1nnc(NC(=O)c2ccccc2Br)n1` is > 4 mM (inactive); for `NC1C2CC3CC1CC(O)(C3)C2` (stereo not given) it is > 4 mM (inactive).
With `C=C(C)C1(O)OC(=O)C=C1OC` (stereo not given), the Kd was > 4 mM (inactive).
As for `CC(=O)N1N=C(N)SC1c1cccnc1` (stereo not given), the Kd is > 4 mM (inactive).
As for `Cc1cc(C)n(-c2ccc(Cl)nn2)n1`, the Kd is > 4 mM (inactive).
Consider `O=C(Cc1cccs1)Nc1ccon1`, for which the Kd is > 4 mM (inactive).
As for `O=C(c1ncc[nH]1)c1ccccc1C(=O)N1CCOCC1`, the figure is > 4 mM (inactive); as for `C[C@@H]1C(=O)OC2[C@H](O)C34[C@@H]5OC(=O)[C@@]3(O[C@@H]3OC(=O)[C@H](O)[C@@]34[C@H](C(C)(C)C)[C@H]5O)[C@]21O` (stereo not given in full), > 4 mM (inactive); as for `CC(=O)Nc1nc(C)nc(-c2ccccc2)c1C(C)=O`, > 4 mM (inactive).
